Experimental data: patent US20210128566A1, “NOVEL FUNCTIONALIZED PURINE-2,6-DIONES AND THEIR USE IN MEDICINE” (THOMAS HELLEDAYS STIFTELSE FÖR MEDICINSK FORSKNING, priority 2017, published 2021)

What follows are compounds tested against recombinant human NUDT5 (Homo sapiens, UniProt Q9UKK9) (assay: NUDT5 inhibitor activity by malachite green reporter assay). Details: Table 3; 6 nM NUDT5, 50 μM ADP-Ribose, 15 minutes at room temperature.
Assay type: biochemical
Protocol: NUDT5 inhibitors were evaluated using a coupled enzymatic assay with detection of inorganic phosphate (Pi) using the malachite green assay. Following enzymatic hydrolysis of ADP-Ribose (Sigma-Aldrich A0572) by NUDT5, to yield AMP and ribose-5-phosphate, the latter product is continuously processed by a significant excess of alkaline phosphatase (Sigma-Aldrich, P0114). Formation of Pi is quantified based on the green complex (that absorbs at 630 nm) formed between malachite green and molybdate according to published procedure (Baykov, A. A., Evtushenko, O. A. and Avaeva, S. M., Anal Biochem, 171, 266-270 (1988)). Assay buffer consisted of 10 mM Tris-acetate at pH 8.0, 40 mM sodium chloride, 10 mM magnesium acetate, 0.005% Tween-20 and 1 mM dithiothreitol (DTT). The final conditions consisted of 6 nM recombinant human NUDT5, 50 μM ADP-Ribose and 10 U/ml of calf intestine alkaline phosphatase. The plates with compounds, enzymes and substrate were incubated at room temperature for 15 minutes, after which the reaction was terminated and the signal developed by the addition of the malachite green reagent using a MultiDrop (Thermo Scientific). Following vigorous shaking on plate shakers for a minimum of eight minutes the absorbance was read in a microplate reader (HidexSense) using a filter at 630 nm and a read time of 0.1 s per well. Inhibitors were used in dilutions from 100 μM to 1.7 nM in 3-fold dilution steps. Experiments were run in duplicate and confirmed in two independent experiments. IC50 values were determined by curve fitting using ExcelFit.

IC50	SMILES
29.1 nM	COc1nc2c(c(=O)n(C)c(=O)n2C)n1Cc1nnc(-c2ccc(Cl)c(Cl)c2)o1 [Example 1, 7-{[5-(3,4-dichlorophenyl)-1,3,4-oxadiazol-2-yl]methyl}-8-methoxy-1,3-dimethyl-2,3,6,7-tetrahydro-1H-purine-2,6-dione]
23.7 nM	Cn1c(=O)c2c(nc(NCCO)n2Cc2nnc(-c3ccc(Cl)c(Cl)c3)o2)n(C)c1=O [Example 2, 7-{[5-(3,4-dichlorophenyl)-1,3,4-oxadiazol-2-yl]methyl}-8-[(2-hydroxyethyl)amino]-1,3-dimethyl-2,3,6,7-tetrahydro-1H-purine-2,6-dione]
111 nM	CN(C)c1nc2c(c(=O)n(C)c(=O)n2C)n1Cc1nnc(-c2ccc(Cl)c(Cl)c2)o1 [Example 3, 7-{[5-(3,4-dichlorophenyl)-1,3,4-oxadiazol-2-yl]methyl}-8-(dimethylamino)-1,3-dimethyl-2,3,6,7-tetrahydro-1H-purine-2,6-dione]
> 1000 nM	CCN(CC)c1nc2c(c(=O)n(C)c(=O)n2C)n1Cc1nnc(-c2ccc(Cl)c(Cl)c2)o1 [Example 4, 7-{[5-(3,4-dichlorophenyl)-1,3,4-oxadiazol-2-yl]methyl}-8-(diethylamino)-1,3-dimethyl-2,3,6,7-tetrahydro-1H-purine-2,6-dione]
12.5 nM	CNc1nc2c(c(=O)n(C)c(=O)n2C)n1Cc1nnc(-c2ccc(Cl)c(Cl)c2)o1 [Example 5, 7-{[5-(3,4-dichlorophenyl)-1,3,4-oxadiazo-2-yl]methyl}-1,3-dimethyl-8-(methylamino)-2,3,6,7-tetrahydro-1H-purine-2,6-dione]
36.9 nM	CCSc1nc2c(c(=O)n(C)c(=O)n2C)n1Cc1nnc(-c2ccc(Cl)c(Cl)c2)o1 [Example 6, 7-{[5-(3,4-dichlorophenyl)-1,3,4-oxadiazol-2-yl]methyl}-8-(ethylsulfanyl)-1,3-dimethyl-2,3,6,7-tetrahydro-1H-purine-2,6-dione]
162 nM	C=CCN(CC=C)c1nc2c(c(=O)n(C)c(=O)n2C)n1Cc1nnc(-c2ccc(Cl)c(Cl)c2)o1 [Example 8, 8-[bis(prop-2-en-1-yl)amino]-7-{[5-(3,4-dichlorophenyl)-1,3,4-oxadiazol-2-yl]methyl}-1,3-dimethyl-2,3,6,7-tetrahydro-1H-purine-2,6-dione]
24.4 nM	CCS(=O)(=O)c1nc2c(c(=O)n(C)c(=O)n2C)n1Cc1nnc(-c2ccc(Cl)c(Cl)c2)o1 [Example 23, 7-{[5-(3,4-dichlorophenyl)-1,3,4-oxadiazol-2-yl]methyl}-8-(ethanesulfonyl)-1,3-dimethyl-2,3,6,7-tetrahydro-1H-purine-2,6-dione]
22.7 nM	Cn1c(=O)c2c(nc(S(=O)(=O)C3CCCCC3)n2Cc2nnc(-c3ccc(Cl)c(Cl)c3)o2)n(C)c1=O [Example 24, 8-(cyclohexanesulfonyl)-7-{[5-(3,4-dichlorophenyl)-1,3,4-oxadiazol-2-yl]methyl}-1,3-dimethyl-2,3,6,7-tetrahydro-1H-purine-2,6-dione]
30 nM	Cn1c(=O)c2c(nc(N3CCC(N)C3)n2Cc2nnc(-c3ccc(Cl)c(Cl)c3)o2)n(C)c1=O (centres unmarked) [Example 25, 8-(3-aminopyrrolidin-1-yl)-7-{[5-(3,4-dichlorophenyl)-1,3,4-oxadiazol-2-yl]methyl}-1,3-dimethyl-2,3,6,7-tetrahydro-1H-purine-2,6-dione]
37 nM	Cn1c(=O)c2c(nc(N3CCCC3)n2Cc2nnc(-c3ccc(Cl)c(Cl)c3)o2)n(C)c1=O [Example 28, 7-{[5-(3,4-dichlorophenyl)-1,3,4-oxadiazol-2-yl]methyl}-1,3-dimethyl-8-(pyrrolidin-1-yl)-2,3,6,7-tetrahydro-1H-purine-2,6-dione]

More lines, now with the values behind:

SMILES	IC50
Cn1c(=O)c2c(nc(SC3CCCCC3)n2Cc2nnc(-c3ccc(Cl)c(Cl)c3)o2)n(C)c1=O [Example 7, 8-(cyclohexylsulfanyl)-7-{[5-(3,4-dichlorophenyl)-1,3,4-oxadiazol-2-yl]methyl}-1,3-dimethyl-2,3,6,7-tetrahydro-1H-purine-2,6-dione]	65.9 nM
Cn1c(=O)c2c(nc(N3CCCCC3)n2Cc2nnc(-c3ccc(Cl)c(Cl)c3)o2)n(C)c1=O [Example 9, 7-{[5-(3,4-dichlorophenyl)-1,3,4-oxadiazol-2-yl]methyl}-1,3-dimethyl-8-(piperidin-1-yl)-2,3,6,7-tetrahydro-1H-purine-2,6-dione]	15 nM
CC1CCN(c2nc3c(c(=O)n(C)c(=O)n3C)n2Cc2nnc(-c3ccc(Cl)c(Cl)c3)o2)CC1 [Example 10, 7-{[5-(3,4-dichlorophenyl)-1,3,4-oxadiazol-2-yl]methyl}-1,3-dimethyl-8-(4-methylpiperidin-1-yl)-2,3,6,7-tetrahydro-1H-purine-2,6-dione]	22.9 nM
Cn1c(=O)c2c(nc(N3CC4CCCCC4C3)n2Cc2nnc(-c3ccc(Cl)c(Cl)c3)o2)n(C)c1=O (centres unmarked) [Example 11, 7-{[5-(3,4-dichlorophenyl)-1,3,4-oxadiazol-2-yl]methyl}-1,3-dimethyl-8-(octahydro-1H-isoindol-2-yl)-2,3,6,7-tetrahydro-1H-purine-2,6-dione]	84.6 nM
Cn1c(=O)c2c(nc(N3CC4(COC4)C3)n2Cc2nnc(-c3ccc(Cl)c(Cl)c3)o2)n(C)c1=O [Example 12, 7-{[5-(3,4-dichlorophenyl)-1,3,4-oxadiazol-2-yl]methyl}-1,3-dimethyl-8-{2-oxa-6-azaspiro[3.3]heptan-6-yl}-2,3,6,7-tetrahydro-1H-purine-2,6-dione]	42.5 nM
Cn1c(=O)c2c(nc(N3CCOCC3)n2Cc2nnc(-c3ccc(Cl)c(Cl)c3)o2)n(C)c1=O [Example 13, 7-{[5-(3,4-dichlorophenyl)-1,3,4-oxadiazol-2-yl]methyl}-1,3-dimethyl-8-(morpholin-4-yl)-2,3,6,7-tetrahydro-1H-purine-2,6-dione]	759 nM
Cn1c(=O)c2c(nc(N3CCN(C(=O)OC(C)(C)C)CC3)n2Cc2nnc(-c3ccc(Cl)c(Cl)c3)o2)n(C)c1=O [Example 14, tert-butyl 4-(7-{[5-(3,4-dichlorophenyl)-1,3,4-oxadiazol-2-yl]methyl}-1,3-dimethyl-2,6-dioxo-2,3,6,7-tetrahydro-1H-purin-8-yl)piperazine-1-carboxylate]	164 nM
CCCCCCN1CCN(c2nc3c(c(=O)n(C)c(=O)n3C)n2Cc2nnc(-c3ccc(Cl)c(Cl)c3)o2)CC1 [Example 15, 7-{[5-(3,4-dichlorophenyl)-1,3,4-oxadiazol-2-yl]methyl}-8-(4-hexylpiperazin-1-yl)-1,3-dimethyl-2,3,6,7-tetrahydro-1H-purine-2,6-dione]	432 nM
CN1CCN(c2nc3c(c(=O)n(C)c(=O)n3C)n2Cc2nnc(-c3ccc(Cl)c(Cl)c3)o2)CC1 [Example 18, 7-{[5-(3,4-dichlorophenyl)-1,3,4-oxadiazol-2-yl]methyl}-1,3-dimethyl-8-(4-methylpiperazin-1-yl)-2,3,6,7-tetrahydro-1H-purine-2,6-dione]	151 nM
Cn1c(=O)c2c(nc(N3CCC(CCO)CC3)n2Cc2nnc(-c3ccc(Cl)c(Cl)c3)o2)n(C)c1=O [Example 20, 7-{[5-(3,4-dichlorophenyl)-1,3,4-oxadiazol-2-yl]methyl}-8-[4-(2-hydroxyethyl)piperidin-1-yl]-1,3-dimethyl-2,3,6,7-tetrahydro-1H-purine-2,6-dione]	30 nM
Cn1c(=O)c2c(nc(N3CCCCCC3)n2Cc2nnc(-c3ccc(Cl)c(Cl)c3)o2)n(C)c1=O [Example 21, 8-(azepan-1-yl)-7-{[5-(3,4-dichlorophenyl)-1,3,4-oxadiazol-2-yl]methyl}-1,3-dimethyl-2,3,6,7-tetrahydro-1H-purine-2,6-dione]	50.3 nM
Cn1c(=O)c2c(nc(N3CCC4(CC3)NC(=O)NC4=O)n2Cc2nnc(-c3ccc(Cl)c(Cl)c3)o2)n(C)c1=O [Example 22, 8-(7-{[5-(3,4-dichlorophenyl)-1,3,4-oxadiazol-2-yl]methyl}-1,3-dimethyl-2,6-dioxo-2,3,6,7-tetrahydro-1H-purin-8-yl)-1,3,8-triazaspiro[4.5]decane-2,4-dione]	35.1 nM
Cn1c(=O)c2c(nc(N3CC(NC(=O)OC(C)(C)C)C3)n2Cc2nnc(-c3ccc(Cl)c(Cl)c3)o2)n(C)c1=O [Example 26, tert-butyl N-[1-(7-{[5-(3,4-dichlorophenyl)-1,3,4-oxadiazol-2-yl]methyl}-1,3-dimethyl-2,6-dioxo-2,3,6,7-tetrahydro-1H-purin-8-yl)azetidin-3-yl]carbamate]	324 nM
Cn1c(=O)c2c(nc(N3CCCNCC3)n2Cc2nnc(-c3ccc(Cl)c(Cl)c3)o2)n(C)c1=O [Example 27, 8-(1,4-diazepan-1-yl)-7-{[5-(3,4-dichlorophenyl)-1,3,4-oxadiazol-2-yl]methyl}-1,3-dimethyl-2,3,6,7-tetrahydro-1H-purine-2,6-dione]	19.3 nM
CC1CN(c2nc3c(c(=O)n(C)c(=O)n3C)n2Cc2nnc(-c3ccc(Cl)c(Cl)c3)o2)CC(C)N1 (centres unmarked) [Example 29, 7-{[5-(3,4-dichlorophenyl)-1,3,4-oxadiazol-2-yl]methyl}-8-(3,5-dimethylpiperazin-1-yl)-1,3-dimethyl-2,3,6,7-tetrahydro-1H-purine-2,6-dione]	43.8 nM
